Data on 15 compounds can be found in patent US4503068A, “Use of prostaglandin analogues to treat cytodamage” (priority 1982, dated 1985).

For series [1], the system named is carbon tetrachloride (CCl4) induced liver damage. The series is described as follows: Effect on carbon tetrachloride (CCl4) induced liver damage (liver cell necrosis type). In kind it is in vivo, Male Wistar rats. Conditions: Rattus norvegicus; for inhibition in vivo at 2 mg/kg: 2000 μg/kg 6 and 12 hr after CCl4; for inhibition in vivo at 0.1 mg/kg: 100 μg/kg 6 and 12 hr after CCl4; for inhibition in vivo at 0.02 mg/kg: 20 μg/kg 6 and 12 hr after CCl4; for inhibition in vivo at 0.5 mg/kg: 500 μg/kg 6 and 12 hr after CCl4; for inhibition in vivo at 0.05 mg/kg: 50 μg/kg 6 and 12 hr after CCl4; for inhibition in vivo at 1 mg/kg: 1000 μg/kg 6 and 12 hr after CCl4. As for the experimental part: Effect on carbon tetrachloride (CCl4) induced liver damage (liver cell necrosis type)
Male Wistar rats weighing 180-220 g were used. Rats were dosed intraperitoneally with CCl4 dissolved in olive oil (5% w/v) at a volume of 500 μl/kg after 18 hr starvation. The compound under test was administered orally (p.o.) or subcutaneously (s.c.) 6 and 12 hr after CCl4 injection in rats and blood was collected after 24 hr. Plasma glutamic oxaloacetic transaminase (GOT) and glutamic pyruvic transaminase (GPT) activities were determined by ultraviolet absorbance methods (optimised method based on the recommendations of the Deutsche Gesellschaft f/u/ r Klinische Chemie). The effects of the compounds tested were assessed by the inhibition rate in comparison with controls. Inhibition rate was calculated by the following formula. [formula]
(§1) In Tables 1 to 4 hereinafter the dose shown is the amount given at each administration of the compound under test.

Series [2] concerns diet-induced acute pancreatitis. The note with it: mice; cited from earlier work.
The nature of another series: in vivo. Conditions: mouse, mice, oral, observed for 14 days. As for the experimental part: Male JCL-ICR mice (non SPF mice) from 7 weeks of age were used. The compound under test was dissolved in 5% v/v ethanol containing 0.4% w/v Tween 80 (Tween is a registered trademark) and administered orally to the mice.
Series [3] has as its system α-naphthylisothiocyanate-induced liver damage. As to the kind of experiment: Effect on α-naphthylisothiocyanate-induced liver damage (cholangioatresia type). Type of series: in vivo, Male Wistar rats. Conditions: p.o., blood after 24 hr. As for the experimental part:
as §1
Effect on α-naphthylisothiocyanate-induced liver damage (cholangioatresia type)
Male Wistar rats weighing 190-220 g were used. After rats had fasted for 18 hr, α-naphthylisothiocyanate (ANIT) dissolved in olive oil (1.5% w/v) was given orally to them at 30 mg/kg body weight. The compound under test was administered orally 30 min before and 6 and 12 hr after administration of ANIT and blood was collected after 24 hr. Plasma GOT, GPT and bilirubin activities were determined and the results given in Table 3 show the inhibition rate compared with controls (calculation by the formula shown in Experiment 1).

Series [4] has as its system D(+)-galactosamine hydrochloride-induced liver damage. The series is described as follows: Effect on D(+)-galactosamine hydrochloride-induced liver damage (hepatitis type). In kind it is in vivo, Male Wistar rats. Conditions: p.o. As for the experimental part:
as §1
Effect on D(+)-galactosamine hydrochloride-induced liver damage (hepatitis type)
Male Wistar rats weighing 180-200 g were used. After the rats had fasted for 18 hr, 375 mg/kg galactosamine hydrochloride was administered to them intraperitoneally two times at 6 hr intervals. The compound under test was administered orally, 30 minutes before and, 6, 12 and 24 hr after the dose of D(+)-galactosamine hydrochloride and blood was collected after 24 and 48 hr. Plasma GOT and GPT activities were determined in the manner described in Experiment 1; plasma bilirubin activities were also determined. The effects were shown by the inhibition rate compared with controls (calculation by the formula shown in Experiment 1).

Series [5] has as its system acute galactosamine-induced liver damage. Conditions: in vivo; cited from earlier work.
Series [6] has as its system carbon tetrachloride-induced liver cell necrosis. The note with it: in vivo; cited from earlier work.
[7] abbreviates: po, plasma GOT after 24 hr, read-out: inhibition rate, GOT.
Where [8] appears, read: po, plasma GPT after 24 hr, read-out: inhibition rate, GPT.
Setting [9] is: sc, plasma GOT after 24 hr, read-out: inhibition rate, GOT.
[10] abbreviates: sc, plasma GPT after 24 hr, read-out: inhibition rate, GPT.

Like-named read-outs stand apart in the source and are kept apart here.

With `OCCCCC[C@H]1C[C@@H]2[C@@H](/C=C/[C@@H](O)C3CCCC3)[C@H](O)C[C@@H]2O1` [Compound 12, 15-cyclopentyl-16,17,18,19,20-pentanor-6S-PGI1 alcohol], the values for the inhibition in vivo at 2 mg/kg in series [1] (setting [7]) and in series [1] (setting [8]) were 7.4% and 44.1%, respectively.
For `CCCC[C@H](C)[C@H](O)/C=C/[C@H]1[C@H](O)CC(=O)[C@@H]1CC(=O)CCCCC(=O)OC` [Compound 1, 16S-methyl-6-oxo-PGE1 methyl ester], the figures for the inhibition in vivo at 0.1 mg/kg in series [1] (setting [7]) and in series [1] (setting [8]) were 59.9% and 53.5%, respectively. For the same compound, the inhibition in vivo at 0.02 mg/kg in series [1] (setting [9]) worked out at 27.8%; in series [1] (setting [10]) it was 16.3%.
For the compound `CCCCC[C@H](O)/C=C/[C@H]1[C@H](O)CC(=O)[C@@H]1C/C=C\CCCC(=O)O` [PGE2], in series [2], the “effect against diet-induced acute pancreatitis” value is “effective”.
Consider `CCCC[C@H](C)C[C@H](O)/C=C/[C@@H]1[C@H]2C[C@H](CCCCC(=O)CO)O[C@H]2C[C@H]1O` [Compound 9, 2-decarboxy-2-glycoloyl-17S,20-dimethyl-6S-PGI1], for which the inhibition in vivo at 0.5 mg/kg in series [1] (setting [9]) was 58.4%; in series [1] (setting [10]), 51.4%. The LD50 at 336 h in the series “in vivo” is > 50 mg/kg.
As to `CCCC[C@H](C)C[C@H](O)/C=C/[C@H]1[C@H](O)CC(=O)[C@@H]1CC(=O)CCCCC(=O)OC` [Compound 2, 17S,20-dimethyl-6-oxo-PGE1 methyl ester], in series [3] (100 μg/kg per administration), the “inhibition, GOT” value came to 39.6%; the “inhibition, GPT” value is 41.9%; the “inhibition, bilirubin” value was found to be 37.5%. Moreover, the inhibition in vivo at 0.05 mg/kg in series [1] (setting [7]) worked out at 61.5%. Besides, the inhibition in vivo at 0.05 mg/kg in series [1] (setting [8]) came to 44.1%. In addition, the inhibition in vivo at 0.02 mg/kg in series [1] (setting [9]) was 37.9%. For the same compound, the inhibition in vivo at 0.02 mg/kg in series [1] (setting [10]) is 34.6%. For the same compound, in series [4] (100 μg/kg per administration), the “inhibition rate, GOT 24 hr after” value amounted to 29.5%; the “inhibition rate, GPT 24 hr after” value was 6.7%; the “inhibition rate, bilirubin 24 hr after” value is recorded as 24.2%; the “inhibition rate, GOT 48 hr after” value came out at 32.7%. Further, in series [4] (100 μg/kg per administration), the “inhibition rate, GPT 48 hr after” value was determined as 23.5% and the “inhibition rate, bilirubin 48 hr after” value stood at 34.6%.
`CCCC[C@H](C)C[C@H](O)/C=C/[C@@H]1[C@H]2CC(CCCCC(=O)OC)=N[C@H]2C[C@H]1O` [Compound 8, 17S,20-dimethyl-6,9α-nitrilo-PGI1 methyl ester]: in series [3] (1000 μg/kg per administration), the “inhibition, GOT” value is recorded as 68.7%; the “inhibition, GPT” value stood at 76.1%; the “inhibition, bilirubin” value is recorded as 45.8%. Also, the inhibition in vivo at 1 mg/kg in series [1] (setting [7]) came out at 41.1%. The inhibition in vivo at 1 mg/kg in series [1] (setting [8]) was found to be 14.5%. For the same compound, the inhibition in vivo at 0.5 mg/kg in series [1] (setting [9]) stood at 65.6%. Moreover, the inhibition in vivo at 0.5 mg/kg in series [1] (setting [10]) stood at 58.6%. In “in vivo”, this compound showed an LD50 at 336 h of 40 to 100 mg/kg. Besides, in series [4] (1000 μg/kg per administration), the “inhibition rate, GOT 24 hr after” value was determined as 40.2%; the “inhibition rate, GPT 24 hr after” value is 32.6%; the “inhibition rate, bilirubin 24 hr after” value turned out to be 12.1%; the “inhibition rate, GOT 48 hr after” value is reported as 57.2%. Also, in series [4] (1000 μg/kg per administration), the “inhibition rate, GPT 48 hr after” value came to 47.6% and the “inhibition rate, bilirubin 48 hr after” value amounted to 11.5%.
Consider `CCCC[C@H](C)C[C@H](O)/C=C/[C@@H]1[C@H]2CC(CC/C=C/C(=O)OC)O[C@H]2C[C@H]1O` (stereo partly drawn) [Compound 7, 17S,20-dimethyl-trans-Δ^2-6RS-PGI1 methyl ester], for which the inhibition in vivo at 1 mg/kg in series [1] (setting [7]) is 58%; in series [1] (setting [8]), 42.7%.
On to `CCCC[C@H](C)C[C@H](O)/C=C/[C@@H]1[C@H]2C[C@H](CCCCC(=O)OC)O[C@H]2C[C@H]1O` [Compound 6, 17S,20-dimethyl-6S-PGI1 methyl ester], for which, in series [3] (2000 μg/kg per administration), the “inhibition, GOT” value was determined as 40.9%; the “inhibition, GPT” value was determined as 44.6%; the “inhibition, bilirubin” value was determined as 33.3%. In addition, the inhibition in vivo at 0.5 mg/kg in series [1] (setting [9]) amounted to 55.3%. Further, in series [1] (setting [10]), the inhibition in vivo at 0.5 mg/kg was determined as 64.6%. Also, in “in vivo”, the LD50 at 336 h was > 50 mg/kg. Moreover, in series [4] (2000 μg/kg per administration), the “inhibition rate, GOT 24 hr after” value came out at 50.2%; the “inhibition rate, GPT 24 hr after” value amounted to 37.8%; the “inhibition rate, bilirubin 24 hr after” value is recorded as 31.8%; the “inhibition rate, GOT 48 hr after” value is 25.5%. Moreover, in series [4] (2000 μg/kg per administration), the “inhibition rate, GPT 48 hr after” value was determined as 21.4% and the “inhibition rate, bilirubin 48 hr after” value was found to be 19.2%.
Take `CCCC[C@H](C)C[C@H](O)/C=C/[C@@H]1[C@H]2C[C@H](CCCCCO)O[C@H]2C[C@H]1O` [Compound 11, 17S,20-dimethyl-6S-PGI1 alcohol]: the inhibition in vivo at 0.5 mg/kg in series [1] (setting [9]) came out at 73.3%; in series [1] (setting [10]), 65.2%. The LD50 at 336 h in “in vivo” is > 50 mg/kg.
`O=C(CO)CCCC[C@H]1C[C@@H]2[C@@H](/C=C/[C@@H](O)C3CCCC3)[C@H](O)C[C@@H]2O1` [Compound 10, 2-decarboxy-2-glycoloyl-15-cyclopentyl-16,17,18,19,20-pentanor-6S-PGI]: the results for the inhibition in vivo at 1 mg/kg in series [1] (setting [9]) and in series [1] (setting [10]) were 11.8% and 0%, respectively.
For `CCCC[C@H](C)C[C@H](O)CC[C@H]1[C@H](O)CC(=O)[C@@H]1CC(=O)CCCCC(=O)OC` [Compound 4, 17S,20-dimethyl-13,14-dihydro-6-oxo-PGE1 methyl ester], the inhibition in vivo at 0.1 mg/kg in series [1] (setting [7]) stood at 52.1%; in series [1] (setting [8]) it was 62.3%. Also, in “in vivo”, the LD50 at 336 h is > 10 mg/kg.
With `CCCC[C@H](C)C[C@H](O)/C=C/[C@H]1[C@H](O)CC(=O)[C@@H]1CC(=O)CCCCCO` [Compound 5, 17S,20-dimethyl-6-oxo-PGE1 alcohol], in series [3] (100 μg/kg per administration), the “inhibition, GOT” value came to 54.1%; the “inhibition, GPT” value is on record as 53.1%; the “inhibition, bilirubin” value worked out at 41.7%. The inhibition in vivo at 0.05 mg/kg in series [1] (setting [7]) worked out at 56.6%. Moreover, the inhibition in vivo at 0.05 mg/kg in series [1] (setting [8]) was found to be 59.1%. The LD50 at 336 h in the series “in vivo” was > 10 mg/kg.
On to `CCCCC(C)(C)[C@H](O)/C=C/[C@H]1[C@H](O)CC(=O)[C@@H]1C/C=C\CCCC(=O)O` [16,16-dimethyl-PGE2], for which the “prevention of acute galactosamine-induced liver damage” value in series [5] is listed as “prevents”. Besides, the “prevention of carbon tetrachloride-induced liver cell necrosis” value in series [6] is on record as “prevents”.
Consider `CCCC1CCC(C(O)/C=C/[C@@H]2[C@H]3CC(CCCCCO)=N[C@H]3C[C@H]2O)C1` (single isomer, unassigned) [Compound 13, 15-(3-propylcyclopentyl)-16,17,18,19,20-pentanor-6,9α-nitrilo-PGI1 alcohol], for which the inhibition in vivo at 1 mg/kg in series [1] (setting [7]) worked out at 53.6%; in series [1] (setting [8]), 58.2%.
Turning to `CCCCC[C@](C)(O)/C=C/[C@H]1[C@H](O)CC(=O)[C@@H]1CC(=O)CCCCC(=O)O` [Compound 3, 15S-methyl-6-oxo-PGE1], the inhibition in vivo at 0.1 mg/kg in series [1] (setting [7]) was found to be 6.8%; in series [1] (setting [8]), 13.2%.

As usually defined, the LD50 is the dose at which mortality reaches 50%.
